Reference: ChEMBL document CHEMBL5584362, “Sucurchalasins A and B, Sulfur-Containing Heterodimers of a Cytochalasan and a Macrolide from the Endophytic Fungus Aspergillus spelaeus GDGJ-286” (J Nat Prod, 2024)
Values after ≈ are worked out from the molar mass of the structure shown. Active and inactive are the calls of the source. The calls are words filed in the database; no cut-off is given here.

Legend:
A2780 [1] = assay: Cytotoxicity against human A2780 cells by MTT assay; assay type: functional, cell-based
SK-OV-3 = assay: Cytotoxicity against human SK-OV-3 cells by MTT assay; assay type: functional, cell-based
HeLa = assay: Cytotoxicity against human HeLa cells by MTT assay; assay type: functional, cell-based
HepG2 = assay: Cytotoxicity against human HepG2 cells by MTT assay; assay type: functional, cell-based
Shigella dysenteriae [2] = assay: Antibacterial activity against Shigella dysenteriae measured after 20 to 45 mins by broth microdilution method; assay type: functional; conditions: time 20-45 min
Enterococcus faecalis = assay: Antibacterial activity against Enterococcus faecalis measured after 20 to 45 mins by broth microdilution method; assay type: functional; conditions: time 20-45 min
Bacillus subtilis = assay: Antibacterial activity against Bacillus subtilis measured after 20 to 45 mins by broth microdilution method; assay type: functional; conditions: time 20-45 min
Vibrio parahaemolyticus [3] = assay: Antibacterial activity against Vibrio parahaemolyticus measured after 20 to 45 mins by broth microdilution method; assay type: functional; conditions: time 20-45 min
Staphylococcus aureus [4] = assay: Antibacterial activity against Staphylococcus aureus measured after 20 to 45 mins by broth microdilution method; assay type: functional; conditions: time 20-45 min
Escherichia coli [5] = assay: Antibacterial activity against Escherichia coli measured after 20 to 45 mins by broth microdilution method; assay type: functional; conditions: time 20-45 min
Salmonella typhi [6] = assay: Antibacterial activity against Salmonella typhi measured after 20 to 45 mins by broth microdilution method; assay type: functional, Salmonella enterica subsp. enterica serovar Typhi; conditions: Salmonella enterica; time 20-45 min
Salmonella typhi [7] = assay: Antibacterial activity against Salmonella typhi at 25 ug/ml measured after 20 to 45 mins by broth microdilution method; assay type: functional, organism-based; conditions: Salmonella enterica subsp. enterica serovar Typhi; dose 25.0 µg/ml, time 20-45 min
Shigella dysenteriae [8] = assay: Antibacterial activity against Shigella dysenteriae at 25 ug/ml measured after 20 to 45 mins by broth microdilution method; assay type: functional, organism-based; conditions: dose 25.0 µg/ml, time 20-45 min
Vibrio parahaemolyticus [9] = assay: Antibacterial activity against Vibrio parahaemolyticus at 25 ug/ml measured after 20 to 45 mins by broth microdilution method; assay type: functional, organism-based; conditions: dose 25.0 µg/ml, time 20-45 min
Staphylococcus aureus [10] = assay: Antibacterial activity against Staphylococcus aureus at 25 ug/ml measured after 20 to 45 mins by broth microdilution method; assay type: functional, organism-based; conditions: dose 25.0 µg/ml, time 20-45 min
Escherichia coli [11] = assay: Antibacterial activity against Escherichia coli at 25 ug/ml measured after 20 to 45 mins by broth microdilution method; assay type: functional, organism-based; conditions: dose 25.0 µg/ml, time 20-45 min
A2780 [12] = assay: Induction of apoptosis in human A2780 cells assessed as chromatin condensation at 1 to 9 uM measured after 48 hrs by Hoechst 33258 staining based assay; assay type: functional, cell-based; conditions: dose 1-9 µM
A2780 [13] = assay: Induction of apoptosis in human A2780 cells assessed as chromatin fragmentation at 1 to 9 uM measured after 48 hrs by Hoechst 33258 staining based assay; assay type: functional, cell-based; conditions: dose 1-9 µM
A2780 [14] = assay: Induction of apoptosis in human A2780 cells assessed as increase in early apoptotic cells measured after 48 hrs by Annexin V-FITC/PI staining based FACS analysis; assay type: functional, cell-based; conditions: dose 1-9 µM
A2780 [15] = assay: Induction of apoptosis in human A2780 cells assessed as increase in late apoptotic cells measured after 48 hrs by Annexin V-FITC/PI staining based FACS analysis; assay type: functional, cell-based; conditions: dose 1-9 µM
A2780 [16] = assay: Induction of apoptosis in human A2780 cells assessed as viable cells at 1 uM measured after 48 hrs by Annexin V-FITC/PI staining based FACS analysis (reference value: 92.6 to 92.8%); assay type: functional; conditions: read-out: Activity
A2780 [17] = assay: Induction of apoptosis in human A2780 cells assessed as early apoptotic cells at 1 uM measured after 48 hrs by Annexin V-FITC/PI staining based FACS analysis (reference value: 1.68 to 1.9%); assay type: functional
A2780 [18] = assay: Induction of apoptosis in human A2780 cells assessed as late apoptotic cells at 1 uM measured after 48 hrs by Annexin V-FITC/PI staining based FACS analysis (reference value: 2.32 to 2.4%); assay type: functional
A2780 [19] = assay: Induction of apoptosis in human A2780 cells assessed as necrotic cells at 1 uM measured after 48 hrs by Annexin V-FITC/PI staining based FACS analysis (reference value: 1.34 to 3.3%); assay type: functional
A2780 [20] = assay: Induction of apoptosis in human A2780 cells assessed as viable cells at 3 uM measured after 48 hrs by Annexin V-FITC/PI staining based FACS analysis (reference value: 92.6 to 92.8%); assay type: functional; conditions: read-out: Activity
A2780 [21] = assay: Induction of apoptosis in human A2780 cells assessed as early apoptotic cells at 3 uM measured after 48 hrs by Annexin V-FITC/PI staining based FACS analysis (reference value: 1.68 to 1.9%); assay type: functional
A2780 [22] = assay: Induction of apoptosis in human A2780 cells assessed as late apoptotic cells at 3 uM measured after 48 hrs by Annexin V-FITC/PI staining based FACS analysis (reference value: 2.32 to 2.4%); assay type: functional
A2780 [23] = assay: Induction of apoptosis in human A2780 cells assessed as necrotic cells at 3 uM measured after 48 hrs by Annexin V-FITC/PI staining based FACS analysis (reference value: 1.34 to 3.3%); assay type: functional
A2780 [24] = assay: Induction of apoptosis in human A2780 cells assessed as viable cells at 9 uM measured after 48 hrs by Annexin V-FITC/PI staining based FACS analysis (reference value: 92.6 to 92.8%); assay type: functional; conditions: read-out: Activity
A2780 [25] = assay: Induction of apoptosis in human A2780 cells assessed as early apoptotic cells at 9 uM measured after 48 hrs by Annexin V-FITC/PI staining based FACS analysis (reference value: 1.68 to 1.9%); assay type: functional
A2780 [26] = assay: Induction of apoptosis in human A2780 cells assessed as late apoptotic cells at 9 uM measured after 48 hrs by Annexin V-FITC/PI staining based FACS analysis (reference value: 2.32 to 2.4%); assay type: functional
A2780 [27] = assay: Induction of apoptosis in human A2780 cells assessed as necrotic cells at 9 uM measured after 48 hrs by Annexin V-FITC/PI staining based FACS analysis (reference value: 1.34 to 3.3%); assay type: functional

Compound | IC50 (A2780 [1]) | IC50 (SK-OV-3) | IC50 (HeLa) | IC50 (HepG2) | MIC (Shigella dysenteriae [2]) | MIC (Enterococcus faecalis) | MIC (Bacillus subtilis) | MIC (Vibrio parahaemolyticus [3]) | MIC (Staphylococcus aureus [4]) | MIC (Escherichia coli [5]) | MIC (Salmonella typhi [6]) | Activity (Salmonella typhi [7]) | Activity (Staphylococcus aureus [10]) | other results
C[C@H]1CC/C=C\CC(=O)c2c(O)cc(O)cc2CC(=O)O1 | > 20 µM | > 20 µM | > 20 µM | > 20 µM | > 25 µg/mL | > 25 µg/mL | > 25 µg/mL | > 25 µg/mL | > 25 µg/mL | > 25 µg/mL | > 25 µg/mL |  |  | 
CC1=C[C@@H]2/C=C(\C)CC[C@@H](O)[C@@H](O)/C=C/C(=O)[C@]23C(=O)N[C@@H](CC(C)C)[C@@H]3[C@@H]1C | > 20 µM | > 20 µM | > 20 µM | > 20 µM |  | 6.3 µg/mL (≈ 15.7 µM) | 6.3 µg/mL (≈ 15.7 µM) |  |  |  |  | inactive | inactive | Activity (Shigella dysenteriae [8]): inactive; Activity (Vibrio parahaemolyticus [9]): inactive; Activity (Escherichia coli [11]): inactive
C[C@H]1CCC/C=C/C(=O)c2c(O)cc(O)cc2CC(=O)O1 [DEHYDROCURVULARIN] | 4.3 µM | 20 µM | 7.9 µM | 12 µM | 6.3 µg/mL (≈ 21.7 µM) | 13 µg/mL (≈ 44.8 µM) | 3.1 µg/mL (≈ 10.7 µM) | 25 µg/mL (≈ 86.1 µM) |  | 25 µg/mL (≈ 86.1 µM) |  | inactive | inactive | Activity (A2780 [12]): Active; Activity (A2780 [13]): Active; Activity (A2780 [14]): Dose-Dependent Effect; Activity (A2780 [15]): Dose-Dependent Effect; viability at 1 µM (A2780 [16]): 94.2%; Activity (A2780 [17]): 2.2%; Activity (A2780 [18]): 1.87%; Activity (A2780 [19]): 1.68%; viability at 3 µM (A2780 [20]): 80.8%; Activity (A2780 [21]): 11.1%; Activity (A2780 [22]): 5.07%; Activity (A2780 [23]): 2.09%; viability at 9 µM (A2780 [24]): 34.1%; Activity (A2780 [25]): 51.6%; Activity (A2780 [26]): 12.2%; Activity (A2780 [27]): 2.11%
CC1=C[C@@H]2/C=C(\C)CCC(=O)[C@@H](O)/C=C/C(=O)[C@]23C(=O)N[C@@H](CC(C)C)[C@@H]3[C@@H]1C | > 20 µM | > 20 µM | > 20 µM | > 20 µM | > 25 µg/mL | > 25 µg/mL | > 25 µg/mL | > 25 µg/mL | > 25 µg/mL | > 25 µg/mL | > 25 µg/mL |  |  | 
O=C(O)c1cn(C2CC2)c2cc(N3CCNCC3)c(F)cc2c1=O [CIPROFLOXACIN] |  |  |  |  | 1.6 µg/mL (≈ 4.83 µM) | 1.6 µg/mL (≈ 4.83 µM) | 1.6 µg/mL (≈ 4.83 µM) | 3.1 µg/mL (≈ 9.36 µM) | 1.6 µg/mL (≈ 4.83 µM) | 1.6 µg/mL (≈ 4.83 µM) | 1.6 µg/mL (≈ 4.83 µM) |  |  | 
